Data as given in US8846659B2 (priority 2010, dated 2014).
pEC50, pKi: −log10 of the molar value. Where a name gives a salt, the structure may show the parent alone.

What was measured:
[1] = test system: recombinant NL-Rluc virus; assay: Inhibition of HIV replication: susceptibility of recombinant NL-Rluc virus to compounds; type: cell-based; settings: Human immunodeficiency virus 1, read-out: Activity (EC50, 50% effective concentration)
[2] = target: HIV integrase (Human immunodeficiency virus type 1 group M subtype B, UniProt P12497); assay: HIV-integrase inhibition activity: inhibition of [3H]BMS-641493 binding to enzyme-SPA bead complexes; settings: competition with [3H]BMS-641493, enzyme-SPA bead complexes; read-out: Activity (Ki toward integrase)
Source text: HIV-Integrase Inhibition Activity.
Radiolabeled integrase inhibitor, BMS-641493 was used as a known reference ligand to determine the binding constants towards the integrase enzyme of the compounds described in this invention using a method similar to that described in; Dicker et al. J. Biological Chem. 2007, 282, 31186-31196; Dicker et al. J. Biol. Chem. 2008, 283, 23599-23609 and Dicker et al. Biochemistry 2008, 47, 13481-13488. BMS-641493 is a known active-site binding inhibitor as it can be competed […] for [3H]BMS-641493 were determined from fitting data to a saturation binding curve using Graphpad Prism, V4.01. The Ki measurement toward integrase was made by measuring the inhibition of binding of [3H]BMS-641493 to enzyme-SPA bead complexes in the presence of serial dilutions of the test compounds. The Ki value was determined from the [3H]BMS-641493 Kd and the inhibition binding curve using Graphpad Prism, V4.03.

Compound	pEC50 [1]	pKi [2]
NC12CCC(CC1)Cn1c2nc(-c2ncc(Cc3ccc(F)cc3)[nH]2)c(O)c1=O [Example 1, 10-Amino-2-[4-[(4-fluorophenyl)methyl]-1H-imidazol-2-yl]-7,8,9,10-tetrahydro-3-hydroxy-7,10-ethanopyrimido[1,2-a]azepin-4(6H)-one]	7.68	
CN(C)C(=O)C(=O)NC12CCC(CC1)Cn1c2nc(-c2ncc(Cc3ccc(F)cc3)[nH]2)c(O)c1=O [Example 2, N′-(2-(4-(4-Fluorobenzyl)-1H-imidazol-2-yl)-3-hydroxy-4-oxo-6,7,8,9-tetrahydro-7,10-ethanopyrimido[1,2-a]azepin-10(4H)-yl)-N,N-dimethylethanediamide]	8.30	7.68
O=C(NC12CCC(CC1)Cn1c2nc(-c2ncc(Cc3ccc(F)cc3)[nH]2)c(O)c1=O)C(=O)N1CCCC1 [Example 3, N-(2-(4-(4-Fluorobenzyl)-1H-imidazol-2-yl)-3-hydroxy-4-oxo-6,7,8,9-tetrahydro-7,10-ethanopyrimido[1,2-a]azepin-10(4H)-yl)-2-oxo-2-(pyrrolidin-1-yl)acetamide]	7.74	6.91
Cc1cc(C(=O)NC23CCC(CC2)Cn2c3nc(-c3ncc(Cc4ccc(F)cc4)[nH]3)c(O)c2=O)no1 [Example 4, N-(2-(4-(4-Fluorobenzyl)-1H-imidazol-2-yl)-3-hydroxy-4-oxo-6,7,8,9-tetrahydro-7,10-ethanopyrimido[1,2-a]azepin-10(4H)-yl)-5-methyl-1,2-oxazole-3-carboxamide]	8.10	7.68
NC12CCC(CC1)Cn1c2nc(-c2ncc(Cc3ccc(F)cc3)s2)c(O)c1=O [Example 5]	7.22	5.41
CN(C)C(=O)C(=O)NC12CCC(CC1)Cn1c2nc(-c2ncc(Cc3ccc(F)cc3)s2)c(O)c1=O [Example 6, N′-(2-(5-(4-Fluorobenzyl)-1,3-thiazol-2-yl)-3-hydroxy-4-oxo-6,7,8,9-tetrahydro-7,10-ethanopyrimido[1,2-a]azepin-10(4H)-yl)-N,N-dimethylethanediamide]	9.00	6.40
CN(C)C(=O)C(=O)NC12CCC(CC1)Cn1c2nc(-c2nnc(Cc3ccc(F)cc3)o2)c(O)c1=O [Example 7, N′-(2-(5-(4-Fluorobenzyl)-1,3,4-oxadiazol-2-yl)-3-hydroxy-4-oxo-6,7,8,9-tetrahydro-7,10-ethanopyrimido[1,2-a]azepin-10(4H)-yl)-N,N-dimethylethanediamide]	8.70	6.65
CN(C)C(=O)C(=O)NC12CCC(CC1)Cn1c2nc(-c2ncc(Cc3ccc(F)cc3)o2)c(O)c1=O [Example 8, N′-(4-(5-(4-Fluorobenzyl)-1,3-oxazol-2-yl)-3-hydroxy-4-oxo-6,7,8,9-tetrahydro-7,10-ethanopyrimido[1,2-a]azepin-10(4H)-yl)-N,N-dimethylethanediamide]	9.40	6.94
CN(C)C(=O)C(=O)NC12CCC(CC1)Cn1c2nc(-c2ncn(Cc3ccc(F)cc3)n2)c(O)c1=O [Example 9, N′-[2-[1-[(4-Fluorophenyl)methyl]-1H-1,2,4-triazol-3-yl]-6,7,8,9-tetrahydro-3-hydroxy-4-oxo-7,10-ethanopyrimido[1,2-a]azepin-10(4H)-yl]-N,N-dimethylethanediamide]		5.97
Cc1cc(Cc2cnc(-c3nc4n(c(=O)c3O)CC3CCC4(NC(=O)C(=O)N(C)C)CC3)[nH]2)ccc1F [Example 10, N′-[2-[4-[(4-Fluoro-3-methylphenyl)methyl]-1H-imidazol-2-yl]-6,7,8,9-tetrahydro-3-hydroxy-4-oxo-7,10-ethanopyrimido[1,2-a]azepin-10(4H)-yl]-N,N-dimethyl-ethanediamide trifluoroacetate salt]	8.22	8.05
Cc1cc(Cc2cnc(-c3nc4n(c(=O)c3O)CC3CCC4(NC(=O)c4cccnc4)CC3)[nH]2)ccc1F [Example 11, N-[2-[4-[(4-Fluoro-3-methylphenyl)methyl]-1H-imidazol-2-yl]-6,7,8,9-tetrahydro-3-hydroxy-4-oxo-7,10-ethanopyrimido[1,2-a]azepin-10(4H)-yl]-3-pyridinecarboxamide trifluoroacetate salt]	7.62	7.72
Cc1cc(Cc2cnc(-c3nc4n(c(=O)c3O)CC3CCC4(NC(=O)c4cccnn4)CC3)[nH]2)ccc1F [Example 12, N-[2-[4-[(4-Fluoro-3-methylphenyl)methyl]-1H-imidazol-2-yl]-6,7,8,9-tetrahydro-3-hydroxy-4-oxo-7,10-ethanopyrimido[1,2-a]azepin-10(4H)-yl]-3-pyridazinecarboxamide trifluoroacetate salt]	8.10	7.89
CN(C)C(=O)C(=O)N(C)C12CCC(CC1)Cn1c2nc(-c2ncc(Cc3ccc(F)cc3)[nH]2)c(O)c1=O [Example 13, N-[2-[4-[(4-Fluorophenyl)methyl]-1H-imidazol-2-yl]-6,7,8,9-tetrahydro-3-hydroxy-4-oxo-7,10-ethanopyrimido[1,2-a]azepin-10(4H)-yl]-N,N′,N′-trimethyl-ethanediamide trifluoroacetate salt]	8.70	7.89
Cc1cc(Cc2c[nH]c(-c3nc4n(c(=O)c3O)CC3CCC4(NC(=O)C(C)(C)n4cncn4)CC3)n2)ccc1F [Example 14, N-[2-[4-[(4-Fluoro-3-methylphenyl)methyl]-1H-imidazol-2-yl]-6,7,8,9-tetrahydro-3-hydroxy-4-oxo-7,10-ethanopyrimido[1,2-a]azepin-10(4H)-yl]-alpha,alpha-dimethyl-1H-1,2,4-triazole-1-acetamide trifluoroacetate salt]	8.15	7.39
CC(=O)N(C)C1(C(=O)NC23CCC(CC2)Cn2c3nc(-c3ncc(Cc4ccc(F)c(C)c4)[nH]3)c(O)c2=O)CC1 [Example 15, 1-(Acetylmethylamino)-N-[2-[4-[(4-fluoro-3-methylphenyl)methyl]-1H-imidazol-2-yl]-6,7,8,9-tetrahydro-3-hydroxy-4-oxo-7,10-ethanopyrimido[1,2-a]azepin-10(4H)-yl]-cyclopropanecarboxamide trifluoroacetate salt]	7.28	7.24
CN(C)C(=O)C(=O)NC12CCC(CC1)Cn1c2nc(-c2nnc(Cc3ccc(F)cc3)s2)c(O)c1=O [Example 16, N′-[2-[5-[(4-Fluorophenyl)methyl]-1,3,4-thiadiazol-2-yl]-6,7,8,9-tetrahydro-3-hydroxy-4-oxo-7,10-ethanopyrimido[1,2-a]azepin-10(4H)-yl]-N,N-dimethylethanediamide]	7.68	5.83
Cc1cc(Cc2c[nH]c(-c3nc4n(c(=O)c3O)CC3CCC4(N(C)C(=O)C(=O)N(C)C)CC3)n2)ccc1F [Example 17, N-[2-[4-[(4-Fluoro-3-methylphenyl)methyl]-1H-imidazol-2-yl]-6,7,8,9-tetrahydro-3-hydroxy-4-oxo-7,10-ethanopyrimido[1,2-a]azepin-10(4H)-yl]-N,N′,N′-trimethyl-ethanediamide trifluoroacetate salt]	8.30	8.00
Cc1cc(Cc2cnc(-c3nc4n(c(=O)c3O)CC3CCC4(NC(=O)c4ccn(C)n4)CC3)[nH]2)ccc1F [Example 18, N-[2-[4-[(4-Fluoro-3-methylphenyl)methyl]-1H-imidazol-2-yl]-6,7,8,9-tetrahydro-3-hydroxy-4-oxo-7,10-ethanopyrimido[1,2-a]azepin-10(4H)-yl]-1-methyl-1H-pyrazole-3-carboxamide]	8.30	7.80
